Measured values reported in ChEMBL document CHEMBL1201862, “PubChem BioAssay data set” (2004).
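48-hour exposure; five concentrations; linearly interpolated endpoints. GI50 = concentration required for 50% inhibition of growth.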 The source made the active and inactive calls. No stated cut-off is given here; in the data, active = GI50 up to about 1.1 µM and inactive = higher.

Key:
Test in all cases: NCI tumour cell line growth inhibition, 48 h
UACC-257 = tested on: UACC-257
OVCAR-8 = tested on: OVCAR-8
SK-MEL-5 = tested on: SK-MEL-5
PC-3 = tested on: PC-3
TK-10 = tested on: TK-10
HCT-15 = tested on: HCT-15
SK-OV-3 = tested on: SK-OV-3
Malme-3M = tested on: Malme-3M
MDA-N = tested on: MDA-N
OVCAR-4 = tested on: OVCAR-4
OVCAR-5 = tested on: OVCAR-5
CCRF-CEM = tested on: CCRF-CEM
NCI-H460 = tested on: NCI-H460
MOLT-4 = tested on: MOLT-4
IGROV-1 = tested on: IGROV-1
BT-549 = tested on: BT-549
NCI-H23 = tested on: NCI-H23
CAKI-1 = tested on: CAKI-1
UACC-62 = tested on: UACC-62
NCI/ADR-RES = tested on: NCI/ADR-RES
U-251 = tested on: U-251
MDA-MB-231 = tested on: MDA-MB-231
HOP-62 = tested on: HOP-62
LOX IMVI = tested on: LOX IMVI
EKVX = tested on: EKVX
NCI-H226 = tested on: NCI-H226
MCF7 = tested on: MCF7
SNB-19 = tested on: SNB-19
RPMI-8226 = tested on: RPMI-8226
KM12 = tested on: KM12
786-0 = tested on: 786-0
Hs-578T = tested on: Hs-578T
SK-MEL-2 = tested on: SK-MEL-2
SW-620 = tested on: SW-620
HCC 2998 = tested on: HCC 2998
MDA-MB-435 = tested on: MDA-MB-435
K562 = tested on: K562
ACHN = tested on: ACHN
DU-145 = tested on: DU-145
HCT-116 = tested on: HCT-116
OVCAR-3 = tested on: OVCAR-3
SK-MEL-28 = tested on: SK-MEL-28
SN12C = tested on: SN12C
UO-31 = tested on: UO-31
SNB-75 = tested on: SNB-75
COLO 205 = tested on: COLO 205
NCI-H522 = tested on: NCI-H522
RXF 393 = tested on: RXF 393
A549 = tested on: A549
HT-29 = tested on: HT-29
HL-60 = tested on: HL-60
M14 = tested on: M14
SR = tested on: SR
T47D = tested on: T47D
SF-268 = tested on: SF-268
A498 = tested on: A498
SF-295 = tested on: SF-295
HOP-92 = tested on: HOP-92
SF-539 = tested on: SF-539

In the case of `COc1ccc(OC)c2c1C[C@@H]1C(C#N)N3[C@H](Cc4c(OC)ccc(OC)c4[C@@H]3C)C(=O)N1[C@H]2C` (some centres undefined), the GI50 (UACC-257) is reported as 2.51 µM (inactive), the GI50 (OVCAR-8) is reported as 2.38 µM (inactive) and the GI50 (SK-MEL-5) is reported as 1.75 µM (inactive). The GI50 (PC-3) was 3.18 µM (inactive), the GI50 (TK-10) was 3.57 µM (inactive) and the GI50 (HCT-15) was 3.08 µM. For the same molecule, the GI50 (SK-OV-3) was 11.9 µM (inactive), the GI50 (Malme-3M) was 2.87 µM (inactive) and the GI50 (MDA-N) was 4.33 µM (inactive). The GI50 (OVCAR-4) was 3.23 µM (inactive), the GI50 (OVCAR-5) was 8.09 µM (inactive) and the GI50 (CCRF-CEM) was 1.9 µM (inactive). The GI50 (NCI-H460) was 7.85 µM (inactive), the GI50 (MOLT-4) was 2.43 µM (inactive) and the GI50 (IGROV-1) was 4.56 µM (inactive). For the same molecule, the GI50 (BT-549) was 1.97 µM (inactive), the GI50 (NCI-H23) was 4.5 µM (inactive) and the GI50 (CAKI-1) was 4.72 µM (inactive). The GI50 (UACC-62) was 2.36 µM (inactive), the GI50 (NCI/ADR-RES) was 4.12 µM (inactive) and the GI50 (U-251) was 2.26 µM (inactive). The GI50 (MDA-MB-231) was 2.08 µM (inactive), the GI50 (HOP-62) was 22.5 µM (inactive) and the GI50 (LOX IMVI) was 2.44 µM (inactive). The GI50 (EKVX) was 5.77 µM (inactive), the GI50 (NCI-H226) was 13.5 µM (inactive) and the GI50 (MCF7) was 3.91 µM (inactive). The GI50 (SNB-19) was 2.15 µM (inactive), the GI50 (RPMI-8226) was 2.53 µM (inactive) and the GI50 (KM12) was 2.77 µM (inactive). The GI50 (786-0) was 3.01 µM (inactive), the GI50 (Hs-578T) was 4.42 µM (inactive) and the GI50 (SK-MEL-2) was 2.16 µM (inactive). The GI50 (SW-620) was 2.86 µM (inactive), the GI50 (HCC 2998) was 3.61 µM (inactive) and the GI50 (MDA-MB-435) was 3.33 µM (inactive). The GI50 (K562) was 2.27 µM (inactive), the GI50 (ACHN) was 2.8 µM (inactive) and the GI50 (DU-145) was 22.4 µM (inactive). The GI50 (HCT-116) was 3.83 µM (inactive), the GI50 (OVCAR-3) was 2.07 µM (inactive) and the GI50 (SK-MEL-28) was 3.03 µM (inactive). For the same molecule, the GI50 (SN12C) was 4.42 µM (inactive), the GI50 (UO-31) was 2.25 µM (inactive) and the GI50 (SNB-75) was 1.08 µM (active). For the same molecule, the GI50 (COLO 205) was 1.84 µM (inactive), the GI50 (NCI-H522) was 1.68 µM (inactive) and the GI50 (RXF 393) was 1.83 µM (inactive). For the same molecule, the GI50 (A549) was 9.53 µM (inactive), the GI50 (HT-29) was 8.05 µM (inactive) and the GI50 (HL-60) was 1.85 µM (inactive). For the same molecule, the GI50 (M14) was 2.67 µM (inactive), the GI50 (SR) was 2.15 µM (inactive) and the GI50 (T47D) was 3.11 µM (inactive). The GI50 (SF-268) was 2.15 µM (inactive), the GI50 (A498) was 11.2 µM (inactive) and the GI50 (SF-295) was 14.9 µM (inactive). The GI50 (HOP-92) was 2.06 µM (inactive) and the GI50 (SF-539) was 2.5 µM (inactive).
`C/C=C/C(CC(O)(C(F)(F)F)C(F)(F)F)=N/NC(N)=S` was tested, and the GI50 (UACC-257) was > 10 µM (inactive), the GI50 (OVCAR-8) was > 10 µM (inactive) and the GI50 (SK-MEL-5) was > 10 µM (inactive). The GI50 (PC-3) was > 10 µM (inactive), the GI50 (TK-10) was > 10 µM (inactive) and the GI50 (HCT-15) was greater than 10 µM. For the same molecule, the GI50 (SK-OV-3) was > 10 µM (inactive), the GI50 (Malme-3M) was > 10 µM (inactive) and the GI50 (MDA-N) was > 10 µM (inactive). The GI50 (OVCAR-4) was > 10 µM (inactive), the GI50 (OVCAR-5) was > 10 µM (inactive) and the GI50 (CCRF-CEM) was > 10 µM (inactive). The GI50 (NCI-H460) was > 10 µM (inactive), the GI50 (MOLT-4) was > 10 µM (inactive) and the GI50 (IGROV-1) was > 10 µM (inactive). For the same molecule, the GI50 (BT-549) was > 10 µM (inactive), the GI50 (NCI-H23) was > 10 µM (inactive) and the GI50 (CAKI-1) was > 10 µM (inactive). For the same molecule, the GI50 (UACC-62) was > 10 µM (inactive), the GI50 (NCI/ADR-RES) was > 10 µM (inactive) and the GI50 (U-251) was > 10 µM (inactive). The GI50 (MDA-MB-231) was > 10 µM (inactive), the GI50 (HOP-62) was > 10 µM (inactive) and the GI50 (LOX IMVI) was > 10 µM (inactive). For the same molecule, the GI50 (EKVX) was > 10 µM (inactive), the GI50 (NCI-H226) was > 10 µM (inactive) and the GI50 (MCF7) was > 10 µM (inactive). The GI50 (SNB-19) was > 10 µM (inactive), the GI50 (RPMI-8226) was > 10 µM (inactive) and the GI50 (KM12) was > 10 µM (inactive). The GI50 (786-0) was > 10 µM (inactive), the GI50 (Hs-578T) was > 10 µM (inactive) and the GI50 (SK-MEL-2) was > 10 µM (inactive). The GI50 (SW-620) was > 10 µM (inactive), the GI50 (HCC 2998) was > 10 µM (inactive) and the GI50 (MDA-MB-435) was > 10 µM (inactive). The GI50 (K562) was > 10 µM (inactive), the GI50 (ACHN) was > 10 µM (inactive) and the GI50 (DU-145) was > 10 µM (inactive). The GI50 (HCT-116) was > 10 µM (inactive), the GI50 (OVCAR-3) was > 10 µM (inactive) and the GI50 (SK-MEL-28) was > 10 µM (inactive). The GI50 (SN12C) was > 10 µM (inactive), the GI50 (SNB-75) was > 10 µM (inactive) and the GI50 (COLO 205) was > 10 µM (inactive). The GI50 (NCI-H522) was > 10 µM (inactive), the GI50 (RXF 393) was > 10 µM (inactive) and the GI50 (A549) was > 10 µM (inactive). The GI50 (HT-29) was > 10 µM (inactive), the GI50 (HL-60) was > 10 µM (inactive) and the GI50 (M14) was > 10 µM (inactive). For the same molecule, the GI50 (SR) was > 10 µM (inactive), the GI50 (T47D) was > 10 µM (inactive) and the GI50 (SF-268) was > 10 µM (inactive). The GI50 (A498) was > 10 µM (inactive), the GI50 (SF-295) was > 10 µM (inactive) and the GI50 (HOP-92) was > 10 µM (inactive). The GI50 (SF-539) was > 10 µM (inactive).
With `Cc1ncc([N+](=O)[O-])n1CCNCCCCn1ccnc1[N+](=O)[O-]` the GI50 (UACC-257) was > 100 µM (inactive), the GI50 (OVCAR-8) was > 100 µM (inactive) and the GI50 (SK-MEL-5) was > 100 µM (inactive). The GI50 (PC-3) was > 100 µM (inactive), the GI50 (TK-10) was > 100 µM (inactive) and the GI50 (HCT-15) was greater than 100 µM. The GI50 (SK-OV-3) was > 100 µM (inactive), the GI50 (Malme-3M) was > 100 µM (inactive) and the GI50 (MDA-N) was > 100 µM (inactive). The GI50 (OVCAR-4) was > 100 µM (inactive), the GI50 (OVCAR-5) was > 100 µM (inactive) and the GI50 (CCRF-CEM) was > 100 µM (inactive). The GI50 (NCI-H460) was > 100 µM (inactive), the GI50 (MOLT-4) was > 100 µM (inactive) and the GI50 (IGROV-1) was > 100 µM (inactive). For the same molecule, the GI50 (BT-549) was 45.5 µM (inactive), the GI50 (NCI-H23) was > 100 µM (inactive) and the GI50 (CAKI-1) was > 100 µM (inactive). The GI50 (UACC-62) was > 100 µM (inactive), the GI50 (NCI/ADR-RES) was > 100 µM (inactive) and the GI50 (U-251) was > 100 µM (inactive). For the same molecule, the GI50 (MDA-MB-231) was > 100 µM (inactive), the GI50 (HOP-62) was > 100 µM (inactive) and the GI50 (LOX IMVI) was > 100 µM (inactive). For the same molecule, the GI50 (EKVX) was > 100 µM (inactive), the GI50 (NCI-H226) was > 100 µM (inactive) and the GI50 (MCF7) was > 100 µM (inactive). For the same molecule, the GI50 (RPMI-8226) was > 100 µM (inactive), the GI50 (KM12) was > 100 µM (inactive) and the GI50 (786-0) was > 100 µM (inactive). For the same molecule, the GI50 (Hs-578T) was > 100 µM (inactive), the GI50 (SK-MEL-2) was > 100 µM (inactive) and the GI50 (SW-620) was > 100 µM (inactive). The GI50 (MDA-MB-435) was > 100 µM (inactive), the GI50 (K562) was > 100 µM (inactive) and the GI50 (ACHN) was > 100 µM (inactive). For the same molecule, the GI50 (DU-145) was > 100 µM (inactive), the GI50 (HCT-116) was > 100 µM (inactive) and the GI50 (OVCAR-3) was > 100 µM (inactive). For the same molecule, the GI50 (SK-MEL-28) was > 100 µM (inactive), the GI50 (SN12C) was > 100 µM (inactive) and the GI50 (UO-31) was > 100 µM (inactive). For the same molecule, the GI50 (SNB-75) was > 100 µM (inactive), the GI50 (COLO 205) was > 100 µM (inactive) and the GI50 (NCI-H522) was > 100 µM (inactive). For the same molecule, the GI50 (RXF 393) was > 100 µM (inactive), the GI50 (A549) was > 100 µM (inactive) and the GI50 (HT-29) was > 100 µM (inactive). For the same molecule, the GI50 (HL-60) was > 100 µM (inactive), the GI50 (M14) was > 100 µM (inactive) and the GI50 (SR) was > 100 µM (inactive). For the same molecule, the GI50 (T47D) was > 100 µM (inactive), the GI50 (SF-268) was > 100 µM (inactive) and the GI50 (A498) was > 100 µM (inactive). For the same molecule, the GI50 (SF-295) was > 100 µM (inactive), the GI50 (HOP-92) was > 100 µM (inactive) and the GI50 (SF-539) was > 100 µM (inactive).
